This note sets out measurements from patent publication US20230201025A1, “PROCESS FOR FABRICATING A DENTAL APPLIANCE AND ACCOMPANYING USE CASES” (Bottmedical AG, priority 2020, published 2023).

Some results are limits rather than exact numbers.

One assay relates to Streptococcus mutans. The assay is described as follows: calorimetric measurement of suppression of bacterial growth (S. mutans). Type of assay: cell-based. The note with it: single essential oil component at 0.1% in BHI. Here is the method:
(§1) Finally, additional calorimetric experiments were performed to measure the capability of different agents of suppressing the growth of bacteria such as Streptococcus mutans and Streptococcus mitis. The different agents 7 were applied as a solution containing a single essential oil component at a concentration of 0.1% in BHI. As figure of merits, the lag phase, defined as the postponement in time of the growth of the bacteria and measured in hours, and the growth rate (increase in number of bacteria/time), measured in J/h, of the Streptococcus populations were determined as follows: […]

The next assay concerns Streptococcus mitis. The experiment in a line: calorimetric measurement of suppression of bacterial growth (S. mitis). It counts as cell-based. The note with it: single essential oil component at 0.1% in BHI. How it is done: as §1

In the case of `CC12CCC(CC1)C(C)(C)O2` [Eucalyptol], in the assay on Streptococcus mutans, the “growth rate (J/h) of S. mutans” value stood at 1.3 J/h and the “lag phase (h) of S. mutans growth” value came out at 5 h. For the same compound, in the assay on Streptococcus mitis, the “growth rate (J/h) of S. mitis” value amounted to 0.14 J/h and the “lag phase (h) of S. mitis growth” value turned out to be 2 h.

As to `C=C(C)[C@H]1CC=C(C)CC1` [Limonene], in the assay on Streptococcus mitis, the “growth rate (J/h) of S. mitis” value came out at 0.11 J/h and the “lag phase (h) of S. mitis growth” value came to 3 h.

`O=CC=Cc1ccccc1` [cinnam aldehyde, cinnamaldehyde]: in the assay with Streptococcus mutans, the “growth rate (J/h) of S. mutans” value is 0 J/h and the “lag phase (h) of S. mutans growth” value was >24 h. Moreover, the “growth rate (J/h) of S. mutans” value with Streptococcus mutans (listed as cinnamaldehyde) is listed as “without any measurable growth”. Moreover, in the assay with Streptococcus mitis, the “growth rate (J/h) of S. mitis” value turned out to be 0.15 J/h and the “lag phase (h) of S. mitis growth” value is reported as 6.2 h.

Take `COC(=O)c1ccccc1O` [methyl salicylate]: in the assay with Streptococcus mutans, the “growth rate (J/h) of S. mutans” value amounted to 1.2 J/h and the “lag phase (h) of S. mutans growth” value was 5 h. In the assay on Streptococcus mitis, the “growth rate (J/h) of S. mitis” value is 0.4 J/h and the “lag phase (h) of S. mitis growth” value was 23 h.

Turning to `C/C=C/c1ccc(OC)cc1` [trans-anethole], in the assay on Streptococcus mutans, the “growth rate (J/h) of S. mutans” value is recorded as 0.03 J/h and the “lag phase (h) of S. mutans growth” value was >24 h. Moreover, in the assay on Streptococcus mitis, the “growth rate (J/h) of S. mitis” value was determined as 0.13 J/h and the “lag phase (h) of S. mitis growth” value amounted to 6.4 h.
